US9522910B2, “Protein kinase inhibitors (variants), use thereof in treating oncological diseases and a pharmaceutical composition based thereon” (Obshchestvo s ogranichennoy otvetstvennostyou “Fusion …, priority 2011, dated 2016)
Blank lines part the entries; values can stand above or below the molecule they belong to.

What was measured:
[1] = system: MV4-11 cells; assay: Animal model of acute myelogenous leukemia (MV4-11 tumors in SCID mice); assay type: in vivo, mouse; conditions: 30 mg/kg; end of the therapy (20 days); ratio of mean tumor volume in therapeutic and control groups
Experimental: MV4-11 cells (1×10^7 in serum-free medium) were subcutaneously injected in right flank of SCID female mice. When tumor volume achieved ˜200 mm^3 mice were separated into two groups: control and therapeutic. Control group mice received 0.3 ml of 0.5% methylcellulose solution, therapeutic group received 0.3 ml of 0.5% methylcellulose with suspended therapeutic compound. Tumor volume (mm^3) was calculated as follows: V=L×W^2×0.5, where L—tumor length in mm, W—width in mm. Ratio of the mean tumor volume in therapeutic and control groups (% T/C) on the end of the therapy (20 days) was used to evaluate efficacy of tumor growth inhibition. Obtained data was subjected to statistical reliability Dunnet test. Efficacies of tested compounds in 30 mg/kg dose are depicted in Table 3.

[2] = target: Abl (Homo sapiens (Human), UniProt P00519); assay: Kinase inhibition assay (33P transfer to plate-bound substrate), Abl; assay type: biochemical; conditions: compound concentration that causes 2-times reduction of kinase enzymatic activity
Text: (§1) Kinases as either kinase domain or full construct fused to glutathione S-transferase (GST) or poly-Histidine tagged fusion proteins were expressed in baculovrius-infected insect cells (e.g. Sf21) or in E. Coli. They are purified to near homogeneity by affinity chromatography as previously described (Lehr et al., Production, purification and characterization of non-myristylated human T-cell protein tyrosine kinase in a baculovirus expression system, Gene, 1996; 169(2), 275-279; Gish et al., Bacterial expression, purification and preliminary kinetic description of the kinase domain of v-fps, Protein Eng. 8, 6, 609-614). In some instances, kinases are co-expressed or mixed with purified or partially purified regulatory polypeptides prior to measurement of activity.
(§2) Kinase activity and inhibition was measured by established protocols (see e.g. Braunwalder et al., A Solid-Phase Assay for the Determination of Protein Tyrosine Kinase Activity of c-src Using Scintillating Microtitration Plates, Anal Biochem. 234, 1, 23-26). In such cases, the transfer of ^33PO4 from ATP to the synthetic substrates poly(Glu, Tyr) 4:1 or poly(Arg, Ser) 3:1 attached to the bioactive surface of microtiter plates is taken as a measure of enzyme activity. After an incubation period, the amount of phosphate transferred is measured by first washing the plate with 0.5% phosphoric acid, adding liquid scintillant, and then counting in a liquid scintillation detector. The IC50 is determined by the concentration of compound that causes a 50% reduction in the amount of ^33P incorporated onto the substrate bound to the plate.

[3] = target: Abl (T315I) (Homo sapiens (Human), UniProt P00519, T315I); assay: Kinase inhibition assay (33P transfer to plate-bound substrate), Abl (T315I); assay type: biochemical; conditions: compound concentration that causes 2-times reduction of kinase enzymatic activity
Text: as §1, §2

[4] = system: K562 human chronic myelogenous leukemia cells; assay: Antiproliferative activity on K562 cells (MTT); assay type: cell-based; conditions: K562, 72 h, compound concentration that causes 2-times reduction of viable cells, 3 days
Experimental: Moreover, antiproliferative activity of the compounds of the present invention can be studied on K562 human chronic myelogenous leukemia cells.
Human myelogenous leukemia K562 cells K562 were cultivated in RPMI 1640 growth medium. K562 cells were transferred to 96-well plated in duplicated (final concentration 2×10^4 cells/ml) and testing compound solution in growth medium was added at different concentrations (final volume is 100 μl per well). Solid compounds were first dissolved in DMSO, then the solution was diluted with DMSO to necessary concentration, mixed with equal volume of growth medium and was transferred to cell plates. The final compound concentrations of compounds was 0.5 nM to 10 μM. DMSO at same percentage is used as control. After compound was incubated with cells for 3 days, the numbers of active cells are measured. It was achieved by removing old medium, addition of 100 μl of fresh medium and 20 μl MIT solution containing 5 mg/ml PBS. Plates was incubated for 2 h at 37° C., then 100 μl DMSO was added at each well and stirred for 1 min. Then the absorbance was measured at 570 nm and percent of proliferation inhibition related to the control (without testing compounds) was determined.

[5] = system: A549 cells; assay: Animal model of non-small cell lung cancer (A549 tumors in nude mice); assay type: in vivo, mouse; conditions: 30 mg/kg, oral gavage; end of the therapy (20 days); ratio of mean tumor volume in therapeutic and control groups
Experimental: Male nude mice were used for this experiment. A549 cells (1×10^7) in 0.2 ml of Matrigel (BD Pharmingen) solution were injected in left mice leg upon ketamine-xylazine anesthesia. After a week of cell inoculation mice were separated into control and therapeutic groups. Control group mice received 0.3 ml of 0.5% methylcellulose solution, therapeutic group received 0.3 ml of 0.5% methylcellulose with suspended therapeutic compound (30 mg/kg). Tumor volume (mm^3) was calculated as follows: V=L×W^2×0.5. Compounds were administered using oral gavage. Treatment continued for 20 days. Ratio of the mean tumor volume in therapeutic and control groups (% T/C) was used to evaluate efficacy of tumor growth inhibition upon the end of the therapy (20 days). Obtained data was subjected to statistical reliability Dunnet test. Efficacies of tested compounds in 30 mg/kg dose are depicted in Table 5.

[6] = in vivo; cited from earlier work
[7] = system: Ba/F3 cells expressing either native or mutant (T315I) Bcr-Abl kinase; assay: Animal model of chronic myelogenous leukemia (Ba/F3 Bcr-Abl tumors in nude balb/c mice); assay type: in vivo, mouse; conditions: 30 mg/kg, oral gavage once daily, 10 days; ratio of mean tumor volume in therapeutic and control groups
Experimental: Ba/F3 cells expressing either native or mutant (T315I) Bcr-Abl kinase, were inoculated in the right flank of nude balb/c mouse (100 μl of cell suspension in serum-free medium, 3×10^6 cells/ml). Mice were randomly assigned to the groups upon tumor volume of ˜500 mm^3. Once daily vehicle (0.5% methylcellulose I in water) was given using oral gavage to the control group, and substance suspension was given to therapeutic group during 10 days. In a typical experiment malignant cells (e.g., K562 cells, or Ba/F3 cells, expressing native of mutated Bcr-Abl kinase) are injected to mouse with reduced immunity (e.g. nude or SCID mice). Tumor volume (mm^3) was calculated as follows: V=L×W^2×0.5, where L—tumor length in mm, W—width in mm. Ratio of the mean tumor volume in therapeutic and control groups (% T/C) was used to evaluate efficacy of tumor growth inhibition. Obtained data was subjected to statistical reliability Dunnet test. Efficacies of tested compounds in 30 mg/kg dose are depicted in Table 2.

[8] = system: HCT116 cells; assay: Animal model of solid intestine tumors (HCT116 tumors in SCID mice); assay type: in vivo, mouse; conditions: 30 mg/kg; end of the therapy (20 days); ratio of mean tumor volume in therapeutic and control groups
Experimental: 200 μl of HCT116 cells (2.5×10^7 cells/ml) were subcutaneously injected in right flank of SCID mice. When tumor volume achieved ˜200 mm^3 mice were randomized and separated into two groups: control and therapeutic. Control group mice received 0.3 ml of 0.5% methylcellulose solution, therapeutic group received 0.5% methylcellulose with suspended therapeutic compound (30 mg/kg). Twice a week animals animal weight, toxic effects and tumor volume were measured. Experiment was stopped upon tumor reached volume of 1200 mm3 of when animal lost 10% of body weight, or 20% of body weight upon 2 consecutive weightings. Ratio of the mean tumor volume in therapeutic and control groups (% T/C) was used to evaluate efficacy of tumor growth inhibition upon the end of the therapy (20 days). Obtained data was subjected to statistical reliability Dunnet test. Efficacies of tested compounds in 30 mg/kg dose are depicted in Table 4.

Compound: Cc1ccc(C(=O)Nc2ccc(CN3CC[C@@H](N(C)C)C3)c(C(F)(F)F)c2)cc1C#Cn1cnc2ccccc21 [drawing 129]
% T/C [1]: <40%

IC50 [2]: < 0.02 µM
IC50 [3]: < 0.02 µM
IC50 [4]: < 0.1 µM
Compound: CN1CCN(Cc2ccc(NC(=O)c3ccc(F)c(C#Cc4nnc5ccccn45)c3)cc2C(F)(F)F)CC1

Compound: Cc1ccc(C(=O)Nc2ccc(CN3CCN(C)CC3)c(C(F)(F)F)c2)cc1C#Cc1nnc2cc(F)ccn12 [drawing 143]
% T/C [5]: <40%

Compound: Cc1cn(-c2cc(NC(=O)c3ccc(C)c(Nc4nccc(-c5cccnc5)n4)c3)cc(C(F)(F)F)c2)cn1 [nilotinib]
bioavailability [6]: 30%

IC50 [2]: < 0.02 µM
IC50 [3]: < 0.02 µM
IC50 [4]: < 0.1 µM
Compound: Cc1ccc(C(=O)Nc2ccc(CN3CCN(C)CC3)c(C(F)(F)F)c2)cc1C#Cc1nnc2ccccn12 [drawing 113]

Compound: Cc1ccc(C(=O)Nc2ccc(CN3CC[C@@H](N(C)C)C3)c(C(F)(F)F)n2)cc1C#Cn1cnc2ccccc21 [drawing 130]
% T/C [1]: <40%

IC50 [2]: < 0.02 µM
IC50 [3]: < 0.02 µM
IC50 [4]: < 0.1 µM
Compound: Cc1ccc(C(=O)Nc2ccc(CN3CCN(C)CC3)c(C(F)(F)F)c2)cc1C#Cc1nnc2cc(C(N)=O)ccn12

IC50 [2]: < 0.02 µM
IC50 [3]: < 0.02 µM
IC50 [4]: < 0.1 µM
Compound: Cc1ccc(C(=O)Nc2ccc(CN3CCN(C)CC3)c(C(F)(F)F)c2)cc1C#Cc1nnc2cc(C(=O)O)cnn12

Compound: Cc1ccc(C(=O)Nc2ccc(CN3CCN(C)CC3)c(C(F)(F)F)c2)cc1C#Cc1nnc2cccc(Cl)n12 [drawing 122]
% T/C [7]: <40%

Compound: Cc1ccc(C(=O)Nc2ccc(CN3CC[C@@H](N(C)C)C3)c(C(F)(F)F)c2)cc1C#Cn1cnc2ccccc21 [drawing 141]
% T/C [5]: <40%

Compound: Cc1ccc(C(=O)Nc2ccc(CN3CCN(C)CC3)c(C(F)(F)F)c2)cc1C#Cc1nnc2ccccn12 [drawing 121]
% T/C [7]: <40%

Compound: Cc1ccc2nnc(C#Cc3cc(C(=O)Nc4ccc(CN5CCN(C)CC5)c(C(F)(F)F)c4)ccc3C)n2n1 [drawing 126]
% T/C [7]: <40%

Compound: Cc1ccc(C(=O)Nc2ccc(CN3CC[C@@H](N(C)C)C3)c(C(F)(F)F)c2)cc1C#Cn1cnc2ccccc21 [drawing 123]
% T/C [7]: <40%

Compound: Cc1ccc2nnc(C#Cc3cc(C(=O)Nc4ccc(CN5CCN(C)CC5)c(C(F)(F)F)c4)ccc3C)n2n1 [drawing 138]
% T/C [8]: <40%

Compound: Cc1ccc(C(=O)Nc2ccc(CN3CCN(C)CC3)c(C(F)(F)F)c2)cc1C#Cc1cnc2cccnn12 [ponatinib]
bioavailability [6]: 20%

Compound: Cc1ccc(C(=O)Nc2ccc(CN3CCN(C)CC3)c(C(F)(F)F)c2)cc1C#Cc1nnc2ccccn12 [drawing 127]
% T/C [1]: <40%

IC50 [2]: < 0.02 µM
IC50 [3]: < 0.02 µM
IC50 [4]: < 0.1 µM
Compound: Cc1ccc(C(=O)Nc2ccc(CN3CCN(C)CC3)c(C(F)(F)F)c2)cc1C#Cn1cnc2cc(C(=O)O)ccc21

Compound: Cc1ccc2nnc(C#Cc3cc(C(=O)Nc4ccc(CN5CCN(C)CC5)c(C(F)(F)F)c4)ccc3C)n2n1 [drawing 132]
% T/C [1]: <40%

Compound: Cc1ccc(C(=O)Nc2ccc(CN3CCN(C)CC3)c(C(F)(F)F)c2)cc1C#Cc1nnc2cccc(Cl)n12 [drawing 128]
% T/C [1]: <40%

Compound: Cc1ccc(C(=O)Nc2ccc(CN3CCN(C)CC3)c(C(F)(F)F)c2)cc1C#Cc1nnc2ccccn12 [drawing 133]
% T/C [8]: <40%

Compound: Cc1ccc(C(=O)Nc2ccc(CN3CCN(C)CC3)c(C(F)(F)F)c2)cc1C#Cc1nnc2cc(F)ccn12 [drawing 125]
% T/C [7]: <40%

Compound: Cc1ccc(C(=O)Nc2ccc(CN3CCN(C)CC3)c(C(F)(F)F)c2)cc1C#Cc1nnc2ccccn12 [drawing 139]
% T/C [5]: <40%

IC50 [2]: < 0.02 µM
IC50 [3]: < 0.02 µM
IC50 [4]: < 0.1 µM
Compound: Cc1ccc(C(=O)Nc2ccc(CN3CCN(C)CC3)c(C(F)(F)F)c2)cc1C#Cc1nnc2cc(C(=O)O)ccn12

Compound: Cc1ccc(C(=O)Nc2ccc(CN3CC[C@@H](N(C)C)C3)c(C(F)(F)F)n2)cc1C#Cn1cnc2ccccc21 [drawing 124]
% T/C [7]: <40%

Compound: Cc1ccc(C(=O)Nc2ccc(CN3CC[C@@H](N(C)C)C3)c(C(F)(F)F)c2)cc1C#Cn1cnc2ccccc21 [drawing 135]
% T/C [8]: <40%

Compound: Cc1ccc(C(=O)Nc2ccc(CN3CCN(C)CC3)c(C(F)(F)F)c2)cc1C#Cc1nnc2cccc(Cl)n12 [drawing 140]
% T/C [5]: <40%

Compound: Cc1ccc(C(=O)Nc2ccc(CN3CCN(C)CC3)c(C(F)(F)F)c2)cc1C#Cc1nnc2cc(F)ccn12 [drawing 137]
% T/C [8]: <40%

Compound: Cc1ccc2nnc(C#Cc3cc(C(=O)Nc4ccc(CN5CCN(C)CC5)c(C(F)(F)F)c4)ccc3C)n2n1 [drawing 144]
% T/C [5]: <40%

Compound: Cc1nc(Nc2ncc(C(=O)Nc3c(C)cccc3Cl)s2)cc(N2CCN(CCO)CC2)n1 [dasatinib]
bioavailability [6]: 14-34%

IC50 [2]: < 0.02 µM
IC50 [3]: < 0.02 µM
IC50 [4]: < 0.1 µM
Compound: Cc1ccc(C(=O)Nc2ccc(CN3CCN(C)CC3)c(C(F)(F)F)c2)cc1C#Cc1nnc2cccnn12

Compound: Cc1ccc(C(=O)Nc2ccc(CN3CC[C@@H](N(C)C)C3)c(C(F)(F)F)n2)cc1C#Cn1cnc2ccccc21 [drawing 136]
% T/C [8]: <40%

Compound: Cc1ccc(C(=O)Nc2ccc(CN3CC[C@@H](N(C)C)C3)c(C(F)(F)F)n2)cc1C#Cn1cnc2ccccc21 [drawing 142]
% T/C [5]: <40%

Compound: Cc1ccc(C(=O)Nc2ccc(CN3CCN(C)CC3)c(C(F)(F)F)c2)cc1C#Cc1nnc2cccc(Cl)n12 [drawing 134]
% T/C [8]: <40%

Compound: Cc1ccc(C(=O)Nc2ccc(CN3CCN(C)CC3)c(C(F)(F)F)c2)cc1C#Cc1nnc2cc(F)ccn12 [drawing 131]
% T/C [1]: <40%
